Source: publication PMC12395308 (ACS Central Science, 2025)
≈ marks a conversion by molar mass, not a printed value. Blank lines part the entries; values can stand above or below the molecule they belong to.

Legend:
[1] = Human liver microsomal stability analysis; conditions: for percentage of 1d/INH remaining after 2 h of incubation, human liver microsomes: 50 μM, 1 mg/mL microsomes, 1 mM NADPH
[2] = Lipophilicity (logD) by shake flask method
[3] = Aqueous stability in acidic and basic buffer (HPLC); conditions: post 24 h of incubation; for chemical stability, pH (7.6): percentage of parent remaining: basic buffer
[4] = Chemical stability in neat DMSO (UV spectrophotometer); conditions: post 24 h of incubation
[5] = Complete pharmacokinetic analysis after a single oral dose; conditions: for plasma level of AcHz formed in vivo: all time points 0.083–24 h
[6] = Aqueous solubility in Tris HCl buffer (pH 7.4), shake flask method; conditions: 37 °C, pH 7.4, aqueous buffer, thermodynamic from solid
[7] = system: pyridoxal and pyridoxal-5′-phosphate; assay: Quantification of pyridoxal and pyridoxal-5-phosphate in mice liver; conditions: repeat-dose study; INH 90 mg/kg, 1d 117.5 mg/kg
[8] = Comparative pharmacokinetic analysis after a single intravenous dose
[9] = Derivatization-based quantification of hydrazine in mice plasma using LC-MS; conditions: for plasma concentration of in vivo released Hz: post 24hrs of 6th dose, repetitive oral dosing for six days; for plasma level of released Hz: single oral dose (10 mg/kg INH or equivalent), all time points 0.083–24 h
[10] = In vivo plasma exposure after repetitive single oral dosing for 10 consecutive days; conditions: for eAUC20m–6h (AcHz): 10th dose, oral, molar equivalent of 10 mg/kg INH
[11] = Comparative plasma exposure after a single oral dose at three incremental dose levels; conditions: for plasma concentration of INH (mean): oral 1mg/Kg; for concentration at 2 h / concentration at 6 h: Balb/C, mouse, plasma, po
[12] = Stomach homogenate conversion assay; assay type: in vitro ADME, mice; conditions: 50 μg/mL
[13] = Intestinal homogenate conversion assay; assay type: in vitro ADME, mice; conditions: 50 μg/mL
[14] = Mouse liver homogenate conversion assay; assay type: in vitro ADME
[15] = Bioconversion of prodrugs in plasma, ex vivo (mice); conditions: 200 μg/mL
[16] = Bioconversion of prodrugs in plasma, ex vivo (human); conditions: 200 μg/mL
[17] = In vivo plasma exposure after a single oral dose (RACE-PK); conditions: single oral dose 10 mg/kg
[18] = Balb/C, mouse, plasma, po, 10 mg/kg of INH (prodrugs at molar equivalent)
[19] = Balb/C, mouse, plasma, iv, 1 mg/kg

SMILES: NNC(=O)c1ccncc1 [INH, Isoniazid, reference compound]
percentage of 1d/INH remaining after 2 h of incubation, human liver microsomes [1]: 66%
logD [2]: -0.8
chemical stability, pH (3.0): percentage of parent remaining ([3]; acidic buffer): 100.0%
chemical stability, pH (7.6): percentage of parent remaining [3]: 100.0%
chemical stability, DMSO: percentage of parent remaining [4]: 100.0%
plasma concentration of released INA (mean) ([5]; single oral dose, 4 h): BLQ
plasma concentration of free INH (mean) ([5]; single oral dose, 6 h): BLQ
plasma concentration of released AcINH (mean) ([5]; single oral dose, 6 h): BLQ
plasma concentration of released INA (mean) ([5]; single oral dose, 6 h): BLQ
plasma concentration of free INH (mean) ([5]; single oral dose, 24 h): BLQ
plasma concentration of released AcINH (mean) ([5]; single oral dose, 24 h): BLQ
plasma concentration of released INA (mean) ([5]; single oral dose, 24 h): BLQ
plasma level of AcHz formed in vivo ([5]; single oral dose): BLQ
solubility at 24 h [6]: 610 mg/mL (≈ 4450 mM)
liver tissue levels of pyridoxal and pyridoxal-5′-phosphate [7]: comparable
plasma concentration of released INA (mean) ([8]; single IV dose, 0.33 h): BLQ
plasma concentration of released INA (mean) ([8]; single IV dose, 1 h): BLQ
plasma concentration of released AcINH (mean) ([8]; single IV dose, 2 h): BLQ
plasma concentration of released INA (mean) ([8]; single IV dose, 2 h): BLQ
plasma concentration of released AcINH (mean) ([8]; single IV dose, 4 h): BLQ
plasma concentration of released INA (mean) ([8]; single IV dose, 4 h): BLQ
plasma concentration of released AcINH (mean) ([8]; single IV dose, 6 h): BLQ
plasma concentration of released INA (mean) ([8]; single IV dose, 6 h): BLQ
plasma concentration of released AcINH (mean) ([8]; single IV dose, 8 h): BLQ
plasma concentration of released INA (mean) ([8]; single IV dose, 8 h): BLQ
plasma concentration of released AcINH (mean) ([8]; single IV dose, 24 h): BLQ
plasma concentration of released INA (mean) ([8]; single IV dose, 24 h): BLQ
plasma concentration of in vivo released Hz [9]: BLQ
plasma level of released Hz [9]: BLQ
eAUC20m–6h (AcHz) [10]: BLQ ^d
feed intake per cage ([10]; day 0, cage of n=3): 9 g
feed intake per cage ([10]; day 1, cage of n=3): 13 g
feed intake per cage ([10]; day 2, cage of n=3): 11 g
feed intake per cage ([10]; day 3, cage of n=3): 9 g
feed intake per cage ([10]; day 4, cage of n=3): 11.5 g
feed intake per cage ([10]; day 5, cage of n=3): 15.5 g
feed intake per cage ([10]; day 6, cage of n=3): 13.5 g
feed intake per cage ([10]; day 7, cage of n=3): 14 g
feed intake per cage ([10]; day 8, cage of n=3): 14 g
feed intake per cage ([10]; day 9, cage of n=3): 15 g
feed intake per cage ([10]; day 10, cage of n=3): 15 g
plasma concentration of INH (mean) ([11]; 2 h): BLQ
plasma concentration of INH (mean) ([11]; 6 h): BLQ

eAUC0–20h in stomach homogenate, prodrug ([12]; 20 h): 433,081 ng·h/mL
percentage of prodrug remaining after 20 h of incubation, stomach homogenate ([12]; ex vivo): 3%
eAUC0–20h in intestinal homogenate, prodrug ([13]; 20 h): 728,889 ng·h/mL
percentage of prodrug remaining after 20 h of incubation, intestine homogenate ([13]; ex vivo): 87%
percentage of 1d remaining after 2 h of incubation, mouse liver homogenate ([14]; 37 °C): 27%
eAUC5–120m of 1d, mouse liver homogenate ([14]; 2 h incubation): 261,525 ng·h/mL
percentage of 1d/INH remaining after 2 h of incubation, human liver microsomes [1]: 77%
eAUC0–120m of 1d, human liver microsomes ([1]; 2 h incubation): 80,176 ng·h/mL
logD [2]: 0.2
chemical stability, pH (7.6): percentage of parent remaining [3]: 100.0%
% of prodrug remaining at 20 h, mice plasma ([15]; 37 °C, ex vivo): 23.8%
eAUC20m–20h in mice plasma, prodrug ([15]; 20 h ex vivo incubation): 987 ± 154 ng·h/mL
% of prodrug remaining at 20 h, human plasma ([16]; 37 °C, ex vivo): 40.1%
eAUC20m–20h in human plasma, prodrug ([16]; 20 h ex vivo incubation): 1196 ± 308 ng·h/mL
chemical stability, DMSO: percentage of parent remaining [4]: 100.0%
plasma concentration of AcINH at 20 min [17]: BLQ
concentration at 0.33 h [5, 18]: 18700 ng/mL
concentration at 1 h [5, 18]: 10400 ng/mL
concentration at 2 h [5, 18]: 4620 ng/mL
concentration at 4 h [5, 18]: 942 ng/mL
concentration at 6 h [5, 18]: 347 ng/mL
concentration at 24 h [5, 18]: 152 ng/mL
plasma concentration of released AcINH (mean) ([5]; single oral dose, 0.33 h): BLQ
plasma concentration of released AcINH (mean) ([5]; single oral dose, 1 h): BLQ
plasma concentration of released AcINH (mean) ([5]; single oral dose, 2 h): BLQ
plasma concentration of released AcINH (mean) ([5]; single oral dose, 4 h): BLQ
plasma concentration of released INA (mean) ([5]; single oral dose, 4 h): BLQ
plasma concentration of free INH (mean) ([5]; single oral dose, 6 h): BLQ
plasma concentration of released AcINH (mean) ([5]; single oral dose, 6 h): BLQ
plasma concentration of released INA (mean) ([5]; single oral dose, 6 h): BLQ
plasma concentration of free INH (mean) ([5]; single oral dose, 24 h): BLQ
plasma concentration of released AcINH (mean) ([5]; single oral dose, 24 h): BLQ
plasma concentration of released INA (mean) ([5]; single oral dose, 24 h): BLQ
AUC5m–24h, released AcINH ([5]; single oral dose, INH 10 mg/kg or molar equivalent): BLQ
Vd, unchanged prodrug ([5]; single oral dose, molar equivalent of 10 mg/kg INH): 1.121 ± 0.345 L/kg
plasma level of AcHz formed in vivo ([5]; single oral dose): BLQ
solubility at 24 h ([6]; Tris HCl buffer): 18.6 mg/mL
liver tissue levels of pyridoxal and pyridoxal-5′-phosphate [7]: comparable
AUC [8, 19]: 18 ± 1 ng·h/mL
Cmax [8, 19]: 90 ± 5 ng/mL
Tmax [8, 19]: 4.8 min
Vd [8, 19]: 21 L/kg
clearance [8, 19]: 1780 mL/min/kg
concentration at 0.33 h [8, 19]: 53.6 ng/mL
plasma concentration of released AcINH (mean) ([8]; single IV dose, 0.33 h): BLQ
plasma concentration of released INA (mean) ([8]; single IV dose, 0.33 h): BLQ
plasma concentration of released AcINH (mean) ([8]; single IV dose, 1 h): BLQ
plasma concentration of released INA (mean) ([8]; single IV dose, 1 h): BLQ
plasma concentration of unchanged 1d (mean) ([8]; single IV dose, 1 h): BLQ
plasma concentration of released AcINH (mean) ([8]; single IV dose, 2 h): BLQ
plasma concentration of released INA (mean) ([8]; single IV dose, 2 h): BLQ
plasma concentration of unchanged 1d (mean) ([8]; single IV dose, 2 h): BLQ
plasma concentration of released AcINH (mean) ([8]; single IV dose, 4 h): BLQ
plasma concentration of released INA (mean) ([8]; single IV dose, 4 h): BLQ
plasma concentration of unchanged 1d (mean) ([8]; single IV dose, 4 h): BLQ
plasma concentration of released AcINH (mean) ([8]; single IV dose, 6 h): BLQ
plasma concentration of released INA (mean) ([8]; single IV dose, 6 h): BLQ
plasma concentration of unchanged 1d (mean) ([8]; single IV dose, 6 h): BLQ
plasma concentration of released AcINH (mean) ([8]; single IV dose, 8 h): BLQ
plasma concentration of released INA (mean) ([8]; single IV dose, 8 h): BLQ
plasma concentration of unchanged 1d (mean) ([8]; single IV dose, 8 h): BLQ
plasma concentration of released AcINH (mean) ([8]; single IV dose, 24 h): BLQ
plasma concentration of released INA (mean) ([8]; single IV dose, 24 h): BLQ
plasma concentration of unchanged 1d (mean) ([8]; single IV dose, 24 h): BLQ
AUC5m–24h, released AcINH ([8]; single IV dose, INH 1 mg/kg or molar equivalent): no AcINH was observed and BLQ
plasma concentration of in vivo released Hz [9]: BLQ
plasma level of released Hz [9]: BLQ
eAUC20m–6h (AcHz) [10]: BLQ ^d
feed intake per cage ([10]; day 0, cage of n=3): 11 g
feed intake per cage ([10]; day 1, cage of n=3): 11.5 g
feed intake per cage ([10]; day 2, cage of n=3): 10.5 g
feed intake per cage ([10]; day 3, cage of n=3): 10 g
feed intake per cage ([10]; day 4, cage of n=3): 11 g
feed intake per cage ([10]; day 5, cage of n=3): 14.5 g
feed intake per cage ([10]; day 6, cage of n=3): 12 g
feed intake per cage ([10]; day 7, cage of n=3): 12 g
feed intake per cage ([10]; day 8, cage of n=3): 13.5 g
feed intake per cage ([10]; day 9, cage of n=3): 12.5 g
feed intake per cage ([10]; day 10, cage of n=3): 12.5 g
concentration at 2 h ([11]; 1 mg/kg): 332 ng/mL
concentration at 6 h ([11]; 1 mg/kg): 146 ng/mL
concentration at 2 h ([11]; 3 mg/kg): 578 ng/mL
concentration at 6 h ([11]; 3 mg/kg): 151 ng/mL
concentration at 2 h ([11]; 10 mg/kg): 2030 ng/mL
concentration at 6 h ([11]; 10 mg/kg): 217 ng/mL
eAUC20m–6h (unchanged 1d) ([11]; single oral dose 1 mg/kg): 2916 ± 1005 ng·h/mL
eAUC20m–6h (unchanged 1d) ([11]; single oral dose 3 mg/kg): 5799 ± 858 ng·h/mL
eAUC20m–6h (unchanged 1d) ([11]; single oral dose 10 mg/kg): 20,138 ± 2821 ng·h/mL
SMILES: CC(C)OC(=O)NNC(=O)c1ccncc1.Cl [prodrug 1d]
plasma eAUC20m–120m (AcINH) ([17]; n=3, 10 mg/kg): BLQ and below the limit of quantification and BLQ ^d
